According to patent US11066447B2, “Aureobasidium derivatives and methods of synthesis” (AureoGen Biosciences, Inc., priority 2016, dated 2021):
Values after ≈ are worked out from the molar mass of the structure shown. Values joined by “and” are separate entries in the source; they are usually repeats but may differ in a detail not shown here. Equal entries are not always repeated. Where two headings read alike, the source gives them in different places. Numbered stars: 1 amine (or outer) side, 2 acyl side, 3 side chain; on linkers, the order of the positions; unused ones are H or OH. Square brackets hold non-standard residues; d marks the D form. Peptide text beside a SMILES is read from it. X1 = CC(C)N1CCN(c2ccc(-c3cccc(C[C@@H](C(=O)[*:2])N(C)[*:1])c3)cc2)CC1; X2 = CN1CCN(c2ccc(-c3cccc(C[C@@H](C(=O)[*:2])N(C)[*:1])c3)cc2)CC1; X7 = CC(C)N1CCN(c2ccc(-c3cccc(C[C@H](N[*:1])C(=O)[*:2])c3)cc2)CC1; X9 = CN1CCN(c2cccc(-c3cccc(C[C@@H](C(=O)[*:2])N(C)[*:1])c3)n2)CC1; X10 = CN([C@@H](Cc1cccc(-c2ccc(N3CCNCC3)nc2)c1)C(=O)[*:2])[*:1]; Hmp(2R,3S) = CC[C@H](C)[C@@H](O)C(=O)O; NMeVal(β-OH) = CN[C@H](C(=O)O)C(C)(C)O; NMeV = CN[C@H](C(=O)O)C(C)C

Key:
[1] = system: C. neoformans MMX 0634 ATCC 90112; experiment: MIC assay (CLSI microdilution); type: cell-based; settings: Cryptococcus neoformans, read-out: MIC
[2] = system: C. albicans MMX 2000 ATCC 10231; experiment: MIC assay (CLSI microdilution); type: cell-based; settings: Candida albicans, ATCC10231, RPMI plus 0.002% Tween-80; read-out: MIC
[3] = system: C. albicans MMX 2000 ATCC 10231; experiment: MIC assay (CLSI microdilution); type: cell-based; settings: Candida albicans, ATCC10231, Without Tween-80; read-out: MIC
[4] = system: A. fumigatus MMX 5280 ATCC MYA-3626; experiment: MIC/MEC assay (CLSI microdilution); type: cell-based, Aspergillus fumigatus
Method in brief: (§1)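 Test agents were assayed by CLSI broth microdilution in Tween-80-supplemented (0.002%) RPMI-1640 against spore inocula of approximately 0.2-2.5×10^4 CFU/mL. Strain MMX 5280 was run both with and without Tween-80.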

[5] = system: A. fumigatus MMX 6781 ATCC MYA-4609; experiment: MIC/MEC assay (CLSI microdilution); type: cell-based
Method in brief: as §1

A. fumigatus MMX 5944 = experiment: MIC/MEC assay (CLSI microdilution); type: cell-based; settings: for minimal effective concentration / MIC: Aspergillus fumigatus, MMX5944, 48 h; for MIC: RPMI plus 0.002% Tween-80, read-out: MIC
Method in brief: as §1

[6] = system: A. niger MMX 0624 ATCC 16888; experiment: MIC/MEC assay (CLSI microdilution); type: cell-based; settings: for minimal effective concentration: RPMI plus 0.002% Tween-80, read-out: MEC
Method in brief: as §1

[7] = system: A. fumigatus from Aureogen; experiment: MIC/MEC assay (CLSI microdilution); type: cell-based; settings: Aspergillus fumigatus, 48 h; for minimal effective concentration: RPMI plus 0.002% Tween-80; for MIC: RPMI plus 0.002% Tween-80, read-out: MIC
Method in brief: as §1

[8] = system: A. fumigatus MMX 6782 ATCC 13073; experiment: MIC/MEC assay (CLSI microdilution); type: cell-based; settings: for minimal effective concentration: RPMI plus 0.002% Tween-80, read-out: MEC
Method in brief: as §1

A. flavus MMX 5948 = experiment: MIC/MEC assay (CLSI microdilution); type: cell-based; settings: Aspergillus flavus, MMX5948, 48 h; for minimal effective concentration: RPMI plus 0.002% Tween-80; for MIC: RPMI plus 0.002% Tween-80, read-out: MIC
Method in brief: as §1

[9] = system: C. parapsilosis MMX 2323 ATCC 22019; experiment: MIC assay (CLSI microdilution); type: cell-based, Candida parapsilosis
Method in brief: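 Broth microdilution MIC testing of Candida parapsilosis ATCC 22019 followed CLSI methods in RPMI-1640, with or without 0.002% Tween-80. Yeast grown 48 hours at 35° C on Sabouraud dextrose agar was suspended to a 0.5 McFarland standard and diluted 1:100 to roughly 0.5-2.5×10^3 CFU/mL. The MIC was the lowest concentration preventing visible growth.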

[10] = ATCC90112, 72 h, 72 hour, RPMI plus 0.002% Tween-80
[11] = Aspergillus fumigatus, 48 h, Without Tween-80, read-out: MIC
[12] = RPMI plus 0.002% Tween-80, 48 hr
[13] = Aspergillus niger, ATCC16888, 48 h
[14] = Aspergillus niger, ATCC16888, 48 h, RPMI plus 0.002% Tween-80, read-out: MIC
[15] = Aspergillus fumigatus, ATCC13073, 48 h
[16] = Aspergillus fumigatus, ATCC13073, 48 h, RPMI plus 0.002% Tween-80, read-out: MIC
[17] = ATCC22019, RPMI plus 0.002% Tween-80, read-out: MIC
[18] = ATCC22019, Without Tween-80, read-out: MIC
[19] = Aspergillus fumigatus, 48 h, RPMI plus 0.002% Tween-80, read-out: MEC
[20] = Aspergillus fumigatus, 48 h, RPMI plus 0.002% Tween-80, read-out: MIC
[21] = Aspergillus fumigatus, 48 h, Without Tween-80, read-out: MEC
[22] = Aspergillus fumigatus, RPMI plus 0.002% Tween-80, 48 hr

MIC [1, 10] [mg/L]	MIC [2] [mg/L]	MIC [3] [mg/L]	MIC [4, 11] [mg/L]	MIC (A. fumigatus MMX 5944) [mg/L]	MIC [6, 14] [mg/L]	MIC [7] [mg/L]	MIC [8, 16] [mg/L]	MIC (A. flavus MMX 5948) [mg/L]	MIC [9, 17] [mg/L]	MIC [9, 18] [mg/L]	MIC [4, 20] [mg/L]	Structure (SMILES)	MEC ([4]; Without Tween-80, 48 hr)	MEC [5, 12] [µg/mL]	minimal effective concentration (A. fumigatus MMX 5944; RPMI plus 0.002% Tween-80) [µg/mL]	minimal effective concentration [6, 13] [µg/mL]	minimal effective concentration [7] [µg/mL]	minimal effective concentration [8, 15] [µg/mL]	minimal effective concentration (A. flavus MMX 5948) [µg/mL]	minimal effective concentration [4, 19] [µg/mL]	other results
0.25	0.015	0.5 (≈ 0.396 µM)	2 (≈ 1.58 µM)	1	0.5	1	2	0.5	0.06	2 (≈ 1.58 µM)	–	CC[C@H](C)[C@@H]1NC(=O)[C@@H]2CCCN2C(=O)[C@H](Cc2cccc(-c3ccc(N4CCNCC4)nc3)c2)N(C)C(=O)[C@H](Cc2ccccc2)NC(=O)[C@H](C(C)C)N(C)C(=O)[C@@H]([C@@H](C)CC)OC(=O)[C@H](C(C)(C)O)N(C)C(=O)[C@H](CC(C)C)NC(=O)[C@H](C(C)C)N(C)C1=O [Compound 30] (cyclo(F[X10]PI[NMeV]L[NMeVal(β-OH)][Hmp(2R,3S)][NMeV]))	1 µg/mL	1	0.5	0.5	0.5	0.5	0.12	–	MEC [4, 12]: 1 µg/mL; MIC [4, 12]: 2 mg/L; MIC [5, 12]: 2 mg/L
1	0.06	1 (≈ 0.664 µM)	1 (≈ 0.664 µM)	1	1	0.5	–	0.5	0.5	2 (≈ 1.33 µM)	2	CC[C@H](C)[C@@H]1NC(=O)[C@@H]2CCCN2C(=O)[C@H](Cc2cccc(-c3ccc(N4CCN(C(C)C)CC4)cc3)c2)N(C)C(=O)[C@H](Cc2cccc(-c3ccc(N4CCN(C(C)C)CC4)cc3)c2)NC(=O)[C@H](C(C)C)N(C)C(=O)[C@@H]([C@@H](C)CC)OC(=O)[C@H](C(C)(C)O)N(C)C(=O)[C@H](CC(C)C)NC(=O)[C@H](C(C)C)N(C)C1=O [Compound 31] (cyclo(I[NMeV]L[NMeVal(β-OH)][Hmp(2R,3S)][NMeV][X7][X1]P))	1/1 μg/mL and 1 μg/mL	1	0.5	0.5	0.25	–	0.12	0.5	MIC ([4]; Without Tween-80, 48 hr): 2 mg/L (≈ 1.33 µM); MIC [5, 12]: 2 mg/L; MEC [8, 12]: 1 µg/mL; MIC [8, 12]: 2 mg/L
0.06	0.015	0.5 (≈ 0.392 µM)	1 (≈ 0.784 µM)	0.06	0.015	0.25	0.12	0.015	0.03	1 (≈ 0.784 µM)	0.25	CC[C@H](C)[C@@H]1NC(=O)[C@@H]2CCCN2C(=O)[C@H](Cc2cccc(-c3ccc(N4CCN(C)CC4)cc3)c2)N(C)C(=O)[C@H](Cc2ccccc2)NC(=O)[C@H](C(C)C)N(C)C(=O)[C@@H]([C@@H](C)CC)OC(=O)[C@H](C(C)(C)O)N(C)C(=O)[C@H](CC(C)C)NC(=O)[C@H](C(C)C)N(C)C1=O [Compound 19] (cyclo(F[X2]PI[NMeV]L[NMeVal(β-OH)][Hmp(2R,3S)][NMeV]))	1 µg/mL	–	0.015	0.008	0.06	0.03	0.008	0.06	MIC ([1]; ATCC90112, RPMI plus 0.002% Tween-80): 0.03 mg/L; minimal effective concentration [4, 21]: 0.5 µg/mL; MIC ([4]; Without Tween-80, 48 hr): 2 mg/L (≈ 1.57 µM); MIC [5, 20]: 0.12 mg/L; minimal effective concentration [5, 22]: 0.06 µg/mL; MEC (A. fumigatus MMX 5944; [12]): 0.015 µg/mL; MIC [6, 12]: 0.015 mg/L; MIC ([9]; Without Tween-80): 2 mg/L (≈ 1.57 µM)
0.06	0.004	0.5 (≈ 0.392 µM)	1 (≈ 0.783 µM)	0.5	0.03	0.06	0.12	0.5	0.03	0.5 (≈ 0.392 µM)	0.25	CC[C@H](C)[C@@H]1NC(=O)[C@@H]2CCCN2C(=O)[C@H](Cc2cccc(-c3cccc(N4CCN(C)CC4)n3)c2)N(C)C(=O)[C@H](Cc2ccccc2)NC(=O)[C@H](C(C)C)N(C)C(=O)[C@@H]([C@@H](C)CC)OC(=O)[C@H](C(C)(C)O)N(C)C(=O)[C@H](CC(C)C)NC(=O)[C@H](C(C)C)N(C)C1=O [Compound 33] (cyclo(F[X9]PI[NMeV]L[NMeVal(β-OH)][Hmp(2R,3S)][NMeV]))	–	–	0.5	0.03	0.06	0.06	0.12	0.015	minimal effective concentration [4, 21]: 0.5 µg/mL; MIC [5, 20]: 0.12 mg/L; minimal effective concentration [5, 22]: 0.03 µg/mL
